According to US7078428B2, “Isoindolone derivatives, preparation process and intermediates of this process, their use as medicaments, and pharmaceutical compositions comprising them” (Sanofi-Aventis Deutschland GmbH, priority 2002, dated 2006):

molecular target: T1, NHE1 (Homo sapiens, UniProt P19634); assay: NHE inhibition FLIPR test (intracellular pH recovery, BCECF) in transfected LAP-1 cells; assay type: cell-based; conditions: transfected cell line (parental LAP-1) expressing the NHE-1 subtype, pHi recovery after acidification
T1 construct: expressed in transfected cells
T1 sequence (P19634 whole entry, species assumed): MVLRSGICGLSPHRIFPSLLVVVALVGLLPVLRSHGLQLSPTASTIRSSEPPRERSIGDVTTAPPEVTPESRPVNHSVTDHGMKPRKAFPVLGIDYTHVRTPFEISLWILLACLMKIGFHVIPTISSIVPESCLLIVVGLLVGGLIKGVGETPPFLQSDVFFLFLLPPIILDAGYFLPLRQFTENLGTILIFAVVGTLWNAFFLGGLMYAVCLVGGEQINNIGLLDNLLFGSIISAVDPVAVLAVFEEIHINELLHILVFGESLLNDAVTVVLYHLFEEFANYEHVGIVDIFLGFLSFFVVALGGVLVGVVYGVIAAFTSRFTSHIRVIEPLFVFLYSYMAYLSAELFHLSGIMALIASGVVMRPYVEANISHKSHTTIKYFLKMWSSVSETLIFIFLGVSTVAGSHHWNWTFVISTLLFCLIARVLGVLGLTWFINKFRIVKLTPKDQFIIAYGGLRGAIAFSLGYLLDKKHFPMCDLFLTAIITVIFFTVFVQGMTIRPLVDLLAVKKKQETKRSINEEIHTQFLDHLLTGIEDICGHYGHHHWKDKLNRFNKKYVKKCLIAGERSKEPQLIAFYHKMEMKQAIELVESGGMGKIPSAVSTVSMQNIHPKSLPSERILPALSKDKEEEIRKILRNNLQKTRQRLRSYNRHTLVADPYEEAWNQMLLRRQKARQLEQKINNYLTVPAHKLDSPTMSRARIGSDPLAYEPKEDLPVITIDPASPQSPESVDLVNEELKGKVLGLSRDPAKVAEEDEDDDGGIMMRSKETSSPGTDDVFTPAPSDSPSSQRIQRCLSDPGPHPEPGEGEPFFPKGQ
Procedure: The NHE inhibitory activities (IC50 values) of the compounds according to the invention were determined by a FLIPR test.
The test is performed in the FLIPR (Fluorescent Imaging Plate Reader) equipped with clear-bottomed and black-walled 96-well microtitration plates.
The growth medium for the transfected cells (Iscove +10% foetal calf serum) also comprises G418 as selection antibiotic to ensure the presence of transfected sequences.
The actual test begins by eliminating the growth medium and adding 100 μl of loading buffer per well (5 μM of BCECF-AM [2′,7′-bis(2-carboxyethyl)-5-(6)-carboxyfluoresceine acetoxymethyl ester] in 20 mM of NH4Cl, 115 mM of choline chloride, 1 mM of CaCl2, 5 mM of KCl, 20 mM of HEPES and 5 mM of glucose; pH 7.4 (adjusted with KOH). The cells are then incubated for 20 minutes at 37° C. This incubation results in the loading of the fluorescent dye into the cells, the fluorescence intensity of which depends on the pHi, and on the NH4Cl, which results in a slight basification of the cells.
The precursor BCECF-AM, a non-fluorescent dye, is, as an ester, capable of crossing the membrane. The actual dye, which is incapable of crossing the membrane, is released inside the cell by esterases.
After this 20-minute incubation, the loading buffer, which comprises NH4Cl and free BCECF-AM, is removed by washing three times in the cell washing device (Tecan Columbus), each wash being performed with 400 μl of washing buffer (133.8 mM of choline chloride, 4.7 mM of KCl, 1.25 mM of MgCl2, 1.25 mM of CaCl2, 0.97 mM of K2HPO4, 0.23 mM of KH2PO4, 5 mM of HEPES and 5 mM of glucose; pH 7.4 (adjusted with KOH)). The residual volume remaining in the wells is 90 μl (possibly between 50 and 125 μl). This washing step removes the free BCECF-AM and results in an intracellular acidification (pHi of 6.3-6.4) due to the removal of the external ammonium ions.
As the equilibrium of the intracellular ammonium with the aqueous ammonia and the protons, by removal of the extracellular ammonium and by the subsequent immediate crossing of the aqueous ammonia across the cell membrane, is disrupted, the washing process results in intracellular protons remaining, which is the cause of the intracellular acidification. This acidification can result finally in the death of the cells if it lasts long enough. It is important here for the washing buffer to be free of sodium (<1 mM), otherwise the extracellular sodium ions would result in an immediate increase in the pHi on account of the activity of the cloned NHE isoforms. It is also important for all the buffers used (loading buffer, washing buffer and regeneration buffer) not to contain any HCO3-ions, otherwise the presence of bicarbonate would result in the activation of bicarbonate-dependent systems that disrupt the pHi regulation, which systems are contained in the LAP-1 parental cell line.
The microtiter plates containing acidified cells are then transferred (up to 20 minutes after the acidification) to the FLIPR. In the FLIPR, the intracellular fluorescent dye is activated with light of a wavelength of 488 nm, which is generated by an argon laser, and the measuring parameters (laser power, illumination time and diaphragm of the […] camera integrated into the FLIPR) are chosen such that the average value of the fluorescent signal per well is between 30,000 and 35,000 relative fluorescence units.
The actual measurement in the FLIPR starts with a photograph being taken by the CCD camera every two seconds under software control. After 10 seconds, the increase in the intracellular pH is initiated by adding 90 μl of regeneration buffer (133.8 mM of NaCl, 4.7 mM of KCl, 1.25 mM of MgCl2, 1.25 mM of CaCl2, 0.97 mM of K2HPO4, 0.23 mM of KH2PO4, 10 mM of HEPES and 5 mM of glucose; pH 7.4 (adjusted with NaOH)) using a 96-well pipette device incorporated into the FLIPR. Some wells, to which is added pure regeneration buffer, serve as positive controls (100% NHE activity). […]

| Compound | IC50 [µM] |
| --- | --- |
| CC(C)CN1C(=O)c2ccccc2C1CC(=O)N=C(N)N (single isomer, unassigned; (-)) [Example 3, (−)-N-[2-(2-Isobutyl-3-oxo-2,3-dihydro-1H-isoindol-1-yl)acetyl]guanidine] | 0.05 |
| CN1C(=O)c2ccccc2C1CC(=O)N=C(N)N (stereo not drawn) [Example 1, N-[2-(2-Methyl-3-oxo-2,3-dihydro-1H-isoindol-1-yl)acetyl]guanidine] | 0.074 |
| CC(C)CN1C(=O)c2ccccc2C1CC(=O)N=C(N)N (stereo not drawn) [Example 2, N-[2-(2-Isobutyl-3-oxo-2,3-dihydro-1H-isoindol-1-yl)acetyl]guanidine] | 0.059 |
| CCCN1C(=O)c2ccccc2C1CC(=O)N=C(N)N (stereo not drawn) [Example 5, N-[2-(3-Oxo-2-propyl-2,3-dihydro-1H-isoindol-1-yl)acetyl]guanidine] | 0.092 |
| CCN1C(=O)c2ccccc2C1CC(=O)N=C(N)N (stereo not drawn) [Example 6, N-[2-(2-Ethyl-3-oxo-2,3-dihydro-1H-isoindol-1-yl)acetyl]guanidine] | 0.211 |
| CC(C)N1C(=O)c2ccccc2C1CC(=O)N=C(N)N (stereo not drawn) [Example 7, N-[2-(2-Isopropyl-3-oxo-2,3-dihydro-1H-isoindol-1-yl)acetyl]guanidine] | 0.116 |
| NC(N)=NC(=O)CC1c2ccccc2C(=O)N1Cc1ccccc1 (stereo not drawn) [Example 9, N-[2-(2-Benzyl-3-oxo-2,3-dihydro-1H-isoindol-1-yl)acetyl]guanidine] | 0.156 |
| CC(C)CN1C(=O)c2cc(OC(C)C)ccc2C1CC(=O)N=C(N)N (stereo not drawn) [Example 16, N-[2-(2-Isobutyl-5-isopropoxy-3-oxo-2,3-dihydro-1H-isoindol-1-yl)-acetyl]-guanidine] | 0.251 |
| CC(C)CN1C(=O)c2cccc(F)c2C1CC(=O)N=C(N)N (stereo not drawn) [Example 17, N-[2-(7-Fluoro-2-isobutyl-3-oxo-2,3-dihydro-1H-isoindol-1-yl)acetyl]guanidine] | 0.043 |
| N=C(N)NC(=O)CC1c2ccccc2C(=O)N1CC(F)(F)F (stereo not drawn) [Example 22, N-[2-(3-Oxo-2-(2,2,2-trifluoroethyl)-2,3-dihydro-1H-isoindol-1-yl)acetyl]guanidine] | 0.1 |
| Cc1ccc2c(c1)C(CC(=O)NC(=N)N)N(CC(C)C)C2=O (stereo not drawn) [Example 35, N-[(2-Isobutyl-6-methyl-3-oxo-2,3-dihydro-1H-isoindol-1-yl)acetyl]guanidine] | 0.038 |
| [H]/N=C(\N)NC(=O)CC1c2cc(S(C)(=O)=O)ccc2C(=O)N1CC(F)(F)F [Example 36, (R)-N-{2-[6-Methanesulfonyl-3-oxo-2-(2,2,2-trifluoro-ethyl)-2,3-dihydro-1H-isoindol-1-yl]-acetyl}-quanidine and (S)-N-{2-[6-Methanesulfonyl-3-oxo-2-(2,2,2-trifluoro-ethyl)-2,3-dihydro-1H-isoindol-1-yl]-acetyl}-quanidine] | 0.031 |
| [H]/N=C(\N)NC(=O)CC1c2cc(S(C)(=O)=O)ccc2C(=O)N1CC1CC1 (stereo not drawn) [Example 37, N-[2-(2-Cyclopropylmethyl-6-methanesulfonyl-3-oxo-2,3-dihydro-1H-isoindol-1-yl)acetyl]-guanidinium acetate] | 0.188 |
| NC(N)=NC(=O)CC1c2cc(F)c(F)cc2C(=O)N1CC(F)(F)F (stereo not drawn) [Example 45, N-{2-[5,6-Difluoro-3-oxo-2-(2,2,2-trifluoro-ethyl)-2,3-dihydro-1H-isoindol-1-yl]-acetyl}-guanidine] | 0.212 |
| N-[2-(3-Oxo-2-(4,4,4-trifluorobutyl)-5-trifluoromethyl-2,3-dihydro-1H-isoindol-1-yl)-acetyl]guanidine and N-[2-(3-Oxo-2-(4,4,4-trifluorobutyl)-6-trifluoromethyl-2,3-dihydro-1H-isoindol-1-yl)acetyl]guanidine [Example 29] | 2.34 |
| N-[2-(5-Chloro-3-oxo-2-(2,2,2-trifluoroethyl)-2,3-dihydro-1H-isoindol-1-yl)acetyl]-guanidine and N-[2-(6-chloro-3-oxo-2-(2,2,2-trifluoroethyl )-2,3-dihydro-1H-isoindol-1yl)acetyl]quanidine [Example 23] | 0.035 |
| N-[2-(5-Chloro-3-oxo-2-(4,4,4-trifluorobutyl)-2,3-dihydro-1H-isoindol-1-yl)acetyl]-guanidine and N-[2-(6-chloro-3-oxo-2-(4,4,4-trifluorobutyl)-2,3-dihydro-1H-isoindol-1yl)acetyl]guanidine [Example 28] | 0.088 |

Compounds with a lower IC50, results first:

| IC50 [µM] | Compound |
| --- | --- |
| 0.018 | Cc1cccc2c1C(=O)N(CC(C)C)C2CC(=O)N=C(N)N (stereo not drawn) [Example 20, N-[2-(2-Isobutyl-4-methyl-3-oxo-2,3-dihydro-1H-isoindol-1-yl)-acetyl]-guanidine] |
| 0.0049 | NC(N)=NC(=O)CC1c2cc(C(F)(F)F)ccc2C(=O)N1CC(F)(F)F (stereo not drawn) [Example 21, N-{2-[3-Oxo-2-(2,2,2-trifluoro-ethyl)-6-trifluoromethyl-2,3-dihydro-1H-isoindol-1-yl]-acetyl}-quanidine] |
| 0.003 | [H]/N=C(\N)NC(=O)CC1c2cc(Cl)c(Cl)cc2C(=O)N1CCC(F)(F)F (stereo not drawn) [Example 41a, N-{2-[5,6-Dichloro-3-oxo-2-(3,3,3-trifluoro-propyl)-2,3-dihydro-1H-isoindol-1-yl]-acetyl}-guanidine acetate] |
| 0.002 | NC(N)=NC(=O)CC1c2cc(Cl)c(Cl)cc2C(=O)N1CC(F)(F)F (stereo not drawn) [Example 44a, N-{2-[5,6-Dichloro-3-oxo-2-(2,2,2-trifluoro-ethyl)-2,3-dihydro-1H-isoindol-1-yl]-acetyl}-guanidine acetate] |
| 0.01 | N-[2-(2-Cyclopropylmethyl-3-oxo-5-trifluoromethyl-2,3-dihydro-1H-isoindol-1-yl)acetyl]-guanidine and N-[2-(2-cyclopropylmethyl-3-oxo-6-trifluoromethyl-2,3-dihydro-1H-isoindol-1-yl)acetyl]guanidine [Example 25] |
| 0.022 | N-[2-(3-Oxo-5-trifluoromethyl-2-(3,3,3-trifluoropropyl)-2,3-dihydro-1H-isoindol-1-yl)-acetyl]guanidine and N-[2-(3-oxo-6-trifluoromethyl-2-(3,3,3-trifluoropropyl)-2,3-dihydro-1H-isoindol-1-yl)acetyl]guanidine [Example 27] |
| 0.022 | N-[2-(5-Bromo-2-isobutyl-3-oxo-2,3-dihydro-1H-isoindol-1-yl)acetyl]guanidine and N-[(6-Bromo-2-isobutyl-3-oxo-2,3-dihydro-1H-isoindol-1-yl)acetyl]guanidine [Example 13] |
| 0.007 | N-[2-(5-Chloro-2-isobutyl-3-oxo-2,3-dihydro-1H-isoindol-1-yl)acetyl]guanidine and N-[(6-Chloro-2-isobutyl-3-oxo-2,3-dihydro-1H-isoindol-1-yl)acetyl]guanidine [Example 12] |
| 0.0086 | N-[2-(5-Chloro-3-oxo-2-(3,3,3-trifluoropropyl)-2,3-dihydro-1H-isoindol-1-yl)acetyl]-guanidine and N-[2-(6-chloro-3-oxo-2-(3,3,3-trifluoropropyl)-2,3-dihydro-1H-isoindol-1-yl)acetyl]quanidine [Example 26] |
| 0.0077 | N-[2-(6-Chloro-2-cyclopropylmethyl-3-oxo-2,3-dihydro-1H-isoindol-1-yl )-acetyl]-guanidine and N-[2-(5-Chloro-2-cyclopropylmethyl-3-oxo-2,3-dihydro-1H-isoindol-1 yl)-acetyl]-guanidine [Example 24] |

tested on: not given; assay: not given; conditions: not given

| melting point [°C] | Compound |
| --- | --- |
| 264 | CC(C)CN1C(=O)c2ccccc2C1CC(=O)N=C(N)N (single isomer, unassigned; (-)) [Example 3, (−)-N-[2-(2-Isobutyl-3-oxo-2,3-dihydro-1H-isoindol-1-yl)acetyl]guanidine] |
| 229 | CCCN1C(=O)c2ccccc2C1CC(=O)N=C(N)N (stereo not drawn) [Example 5, N-[2-(3-Oxo-2-propyl-2,3-dihydro-1H-isoindol-1-yl)acetyl]guanidine] |
| 223 | CCN1C(=O)c2ccccc2C1CC(=O)N=C(N)N (stereo not drawn) [Example 6, N-[2-(2-Ethyl-3-oxo-2,3-dihydro-1H-isoindol-1-yl)acetyl]guanidine] |
